This note sets out measurements from PMC3604156 (Transplantation, 2013).

The format of data set [1] is in vivo, human. As to conditions: expressors vs nonexpressors.
Data set [2] is classed as in vivo, human. As to conditions: for AUC0–inf: whole blood, single oral 5 mg/kg CsA, mean ± SD.

Where two headings read alike, the source gives them in different places.

`CC[C@@H]1NC(=O)[C@H]([C@H](O)[C@H](C)C/C=C/CO)N(C)C(=O)[C@H](C(C)C)N(C)C(=O)[C@H](CC(C)C)N(C)C(=O)[C@H](CC(C)(C)O)N(C)C(=O)[C@@H](C)NC(=O)[C@H](C)NC(=O)[C@H](CC(C)C)N(C)C(=O)[C@H](C(C)C)NC(=O)[C@H](CC(C)C)N(C)C(=O)CN(C)C1=O` [AM19]: in data set [1], the “average cumulative amount excreted in urine, higher in CYP3A5 expressors compared to nonexpressors” value turned out to be 48%. The “AUCAM19/AUCAM1 ratio, higher in CYP3A5 expressors compared to nonexpressors” value in data set [2] (expressors vs nonexpressors) was 46.9%. The “average blood AUC, higher in CYP3A5 expressors compared to nonexpressors” value in data set [2] (expressors vs nonexpressors) stood at 47.4%. Further, the entries for the “AUC0–inf” value in data set [2] (CYP3A5 expressors (n=12)) and in data set [2] (CYP3A5 nonexpressors (n=12)) were 1.36 ± 0.602 µg·h/mL and 0.923 ± 0.343 µg·h/mL, respectively.
